Laboratory results from the NIST ThermoML archive (doi:10.1021/je050020m).
Numbers after ± are expanded uncertainties.

Experiment: xn = mol fraction of the nth substance listed
Details: Liquid, Vibrating tube method

CCCCCCCCCC [decane] + O=C=O
Details	mass density [kg/m3]
323.05 K, 14026 kPa, x2 = 0.0551	721.01 ± 0.59
323.05 K, 15008 kPa, x2 = 0.0551	721.76 ± 0.6
323.05 K, 16035 kPa, x2 = 0.0551	722.62 ± 0.6
323.05 K, 17008 kPa, x2 = 0.0551	723.4 ± 0.61
323.05 K, 18019 kPa, x2 = 0.0551	724.22 ± 0.61
323.05 K, 18994 kPa, x2 = 0.0551	724.89 ± 0.61
323.05 K, 20009 kPa, x2 = 0.0551	725.73 ± 0.62
323.05 K, 21010 kPa, x2 = 0.0551	726.47 ± 0.62
323.05 K, 21987 kPa, x2 = 0.0551	727.22 ± 0.63
323.05 K, 23060 kPa, x2 = 0.0551	728.04 ± 0.63
323.05 K, 23980 kPa, x2 = 0.0551	728.74 ± 0.64
323.05 K, 25055 kPa, x2 = 0.0551	729.61 ± 0.64
323.06 K, 5014 kPa, x2 = 0.2369	719.6 ± 0.52
323.06 K, 6022 kPa, x2 = 0.2369	720.66 ± 0.52
323.06 K, 7021 kPa, x2 = 0.2369	721.73 ± 0.53
323.06 K, 7029 kPa, x2 = 0.4536	732.05 ± 0.49
323.06 K, 8017 kPa, x2 = 0.4536	733.42 ± 0.49
323.06 K, 8020 kPa, x2 = 0.2369	722.8 ± 0.53
323.06 K, 9010 kPa, x2 = 0.2369	723.79 ± 0.54
323.06 K, 9018 kPa, x2 = 0.4536	734.79 ± 0.56
323.06 K, 10024 kPa, x2 = 0.4536	736.13 ± 0.52
323.06 K, 10030 kPa, x2 = 0.2369	724.84 ± 0.54
323.06 K, 11018 kPa, x2 = 0.2369	725.81 ± 0.54
323.06 K, 11019 kPa, x2 = 0.4536	737.41 ± 0.51
323.06 K, 12021 kPa, x2 = 0.2369	726.78 ± 0.55
323.06 K, 12025 kPa, x2 = 0.4536	738.69 ± 0.51
323.06 K, 13001 kPa, x2 = 0.2369	727.75 ± 0.55
323.06 K, 13003 kPa, x2 = 0.4536	739.89 ± 0.51
323.06 K, 14021 kPa, x2 = 0.2369	728.7 ± 0.56
323.06 K, 14027 kPa, x2 = 0.4536	741.16 ± 0.52
323.06 K, 15001 kPa, x2 = 0.4536	742.33 ± 0.52
323.06 K, 15014 kPa, x2 = 0.2369	729.63 ± 0.56
323.06 K, 16010 kPa, x2 = 0.2369	730.54 ± 0.56
323.06 K, 16024 kPa, x2 = 0.4536	743.53 ± 0.53
323.06 K, 17006 kPa, x2 = 0.2369	731.46 ± 0.57
323.06 K, 17010 kPa, x2 = 0.4536	744.68 ± 0.53
323.06 K, 18028 kPa, x2 = 0.2369	732.36 ± 0.57
323.06 K, 18030 kPa, x2 = 0.4536	745.84 ± 0.53
323.06 K, 19000 kPa, x2 = 0.4536	746.93 ± 0.54
323.06 K, 19016 kPa, x2 = 0.2369	733.24 ± 0.58
323.06 K, 20015 kPa, x2 = 0.2369	734.11 ± 0.58
323.06 K, 20028 kPa, x2 = 0.4536	748.09 ± 0.54
323.06 K, 21001 kPa, x2 = 0.4536	749.17 ± 0.55
323.06 K, 21027 kPa, x2 = 0.2369	735 ± 0.59
323.06 K, 22020 kPa, x2 = 0.4536	750.24 ± 0.55
323.06 K, 22023 kPa, x2 = 0.2369	735.85 ± 0.59
323.06 K, 23012 kPa, x2 = 0.4536	751.33 ± 0.56
323.06 K, 23022 kPa, x2 = 0.2369	736.71 ± 0.6
323.06 K, 24006 kPa, x2 = 0.2369	737.58 ± 0.6
323.06 K, 24021 kPa, x2 = 0.4536	752.42 ± 0.56
323.06 K, 25004 kPa, x2 = 0.2369	738.42 ± 0.61
323.06 K, 25029 kPa, x2 = 0.4536	753.51 ± 0.57
332.91 K, 12008 kPa, x2 = 0.8114	740.55 ± 1.9
332.91 K, 13051 kPa, x2 = 0.8114	744.82 ± 0.5
332.91 K, 14018 kPa, x2 = 0.8114	748.57 ± 0.5
332.91 K, 15048 kPa, x2 = 0.8114	752.37 ± 0.5
332.91 K, 15985 kPa, x2 = 0.8114	755.64 ± 0.5
332.91 K, 17015 kPa, x2 = 0.8114	759.04 ± 0.5
332.91 K, 18008 kPa, x2 = 0.8114	762.27 ± 0.5
332.91 K, 19002 kPa, x2 = 0.8114	765.33 ± 0.5
332.91 K, 20017 kPa, x2 = 0.8114	768.38 ± 0.5
332.91 K, 21018 kPa, x2 = 0.8114	771.25 ± 0.51
332.91 K, 22044 kPa, x2 = 0.8114	774.13 ± 0.51
332.91 K, 23040 kPa, x2 = 0.8114	776.83 ± 0.51
332.91 K, 24008 kPa, x2 = 0.8114	779.4 ± 0.51
332.91 K, 25047 kPa, x2 = 0.8114	782.09 ± 0.52
332.94 K, 1997 kPa, x2 = 0.0551	702.61 ± 0.55
332.94 K, 3024 kPa, x2 = 0.0551	703.63 ± 0.55
332.94 K, 4011 kPa, x2 = 0.0551	704.59 ± 0.55
332.94 K, 5026 kPa, x2 = 0.2369	711.09 ± 0.52
332.94 K, 5040 kPa, x2 = 0.0551	705.62 ± 0.56
332.94 K, 6015 kPa, x2 = 0.2369	712.23 ± 0.52
332.94 K, 6062 kPa, x2 = 0.0551	706.62 ± 0.56
332.94 K, 7009 kPa, x2 = 0.0551	707.53 ± 0.56
332.94 K, 7015 kPa, x2 = 0.4536	721.74 ± 0.49
332.94 K, 7019 kPa, x2 = 0.2369	713.38 ± 0.53
332.94 K, 7978 kPa, x2 = 0.0551	708.43 ± 0.57
332.94 K, 8020 kPa, x2 = 0.2369	714.47 ± 0.53
332.94 K, 8025 kPa, x2 = 0.4536	723.26 ± 0.5
332.94 K, 9016 kPa, x2 = 0.4536	724.72 ± 0.5
332.94 K, 9017 kPa, x2 = 0.2369	715.56 ± 0.54
332.94 K, 9037 kPa, x2 = 0.0551	709.44 ± 0.57
332.94 K, 9992 kPa, x2 = 0.0551	710.31 ± 0.58
332.94 K, 10015 kPa, x2 = 0.2369	716.65 ± 0.54
332.94 K, 10023 kPa, x2 = 0.4536	726.15 ± 0.6
332.94 K, 11009 kPa, x2 = 0.2369	717.69 ± 0.54
332.94 K, 11014 kPa, x2 = 0.4536	727.55 ± 0.51
332.94 K, 11032 kPa, x2 = 0.0551	711.27 ± 0.58
332.94 K, 12001 kPa, x2 = 0.4536	728.9 ± 0.51
332.94 K, 12005 kPa, x2 = 0.9663	511.9 ± 1.4
332.94 K, 12013 kPa, x2 = 0.0551	712.13 ± 0.58
332.94 K, 12015 kPa, x2 = 0.2369	718.74 ± 0.55
332.94 K, 12511 kPa, x2 = 0.9663	544.43 ± 1.4
332.94 K, 13003 kPa, x2 = 0.9663	571.24 ± 1.1
332.94 K, 13015 kPa, x2 = 0.2369	719.76 ± 0.55
332.94 K, 13027 kPa, x2 = 0.0551	713.03 ± 0.59
332.94 K, 13045 kPa, x2 = 0.4536	730.28 ± 0.52
332.94 K, 13998 kPa, x2 = 0.4536	731.55 ± 0.52
332.94 K, 14011 kPa, x2 = 0.2369	720.77 ± 0.56
332.94 K, 14015 kPa, x2 = 0.9663	614.37 ± 0.98
332.94 K, 14018 kPa, x2 = 0.0551	713.89 ± 0.59
332.94 K, 15000 kPa, x2 = 0.4536	732.81 ± 0.52
332.94 K, 15003 kPa, x2 = 0.2369	721.75 ± 0.56
332.94 K, 15021 kPa, x2 = 0.0551	714.75 ± 0.6
332.94 K, 15026 kPa, x2 = 0.9663	648.23 ± 0.86
332.94 K, 15997 kPa, x2 = 0.0551	715.59 ± 0.6
332.94 K, 16019 kPa, x2 = 0.2369	722.73 ± 0.57
332.94 K, 16032 kPa, x2 = 0.4536	734.14 ± 0.53
332.94 K, 16035 kPa, x2 = 0.9663	674.85 ± 0.77
332.94 K, 16998 kPa, x2 = 0.0551	716.44 ± 0.61
332.94 K, 17015 kPa, x2 = 0.2369	723.7 ± 0.57
332.94 K, 17018 kPa, x2 = 0.4536	735.36 ± 0.53
332.94 K, 17018 kPa, x2 = 0.9663	695.62 ± 0.71
332.94 K, 18016 kPa, x2 = 0.9663	713.48 ± 0.67
332.94 K, 18021 kPa, x2 = 0.4536	736.57 ± 0.54
332.94 K, 18026 kPa, x2 = 0.2369	724.66 ± 0.58
332.94 K, 18031 kPa, x2 = 0.0551	717.29 ± 0.61
332.94 K, 19002 kPa, x2 = 0.9663	728.62 ± 0.64
332.94 K, 19004 kPa, x2 = 0.0551	718.07 ± 0.62
332.94 K, 19012 kPa, x2 = 0.4536	737.79 ± 0.54
332.94 K, 19022 kPa, x2 = 0.2369	725.6 ± 0.58
332.94 K, 20002 kPa, x2 = 0.0551	718.88 ± 0.62
332.94 K, 20002 kPa, x2 = 0.4536	738.93 ± 0.55
332.94 K, 20012 kPa, x2 = 0.2369	726.51 ± 0.58
332.94 K, 20033 kPa, x2 = 0.9663	742.59 ± 0.62
332.94 K, 21014 kPa, x2 = 0.0551	719.68 ± 0.63
332.94 K, 21022 kPa, x2 = 0.9663	754.63 ± 0.61
332.94 K, 21024 kPa, x2 = 0.2369	727.44 ± 0.59
332.94 K, 21028 kPa, x2 = 0.4536	740.14 ± 0.55
332.94 K, 22021 kPa, x2 = 0.2369	728.35 ± 0.59
332.94 K, 22021 kPa, x2 = 0.4536	741.29 ± 0.56
332.94 K, 22027 kPa, x2 = 0.0551	720.5 ± 0.63
332.94 K, 22029 kPa, x2 = 0.9663	765.58 ± 0.59
332.94 K, 23009 kPa, x2 = 0.4536	742.44 ± 0.56
332.94 K, 23010 kPa, x2 = 0.2369	729.26 ± 0.6
